{
  "source": "paper PMC6572854",
  "about": "“Convergent allostery in ribonucleotide reductase” (Nature Communications, 2019)",
  "key": {"[1]": {"target": "T1, NrdE (holo-NrdE; class Ib RNR alpha subunit) (Bacillus subtilis, UniProt P50620)", "T1 construct": "tagless full-length (C-terminal residue V700), His6-SUMO tag cleaved, E. coli BL21(DE3); holo form co-purifies with dAMP; monomer, I-dimer, S-dimer or filament depending on nucleotides", "assay": "cryo-EM structure ([…] Å) and SAXS titration", "type": "binding", "conditions": "allosteric; S-site and I-site; 100 µM dATP, 1 mM CDP, 15 mM MgCl2, pH 7.6; dATP displaces co-purified dAMP at I-site"}, "[2]": {"target": "T2, NrdEF (holo-NrdE + Mn-reconstituted NrdF) (Bacillus subtilis, UniProt P50620)", "T2 construct": "tagless NrdE (SUMO tag cleaved) plus His6-tagged NrdF, E. coli host; alpha2beta2 asymmetric unit of filament; both nucleotide sites lie on NrdE; NrdF modelled only as C-terminal polyalanine peptide; with Ribonucleoside-diphosphate reductase subunit beta NrdF", "assay": "cryo-EM structure ([…] Å)", "type": "binding", "conditions": "allosteric; S-site and I-site of NrdE in NrdEF filament; 100 µM dATP, 1 mM CDP, 15 mM MgCl2, pH 7.6"}, "[3]": {"target": "T1, NrdE (holo-NrdE; class Ib RNR alpha subunit)", "assay": "crystal structure ([…] Å)", "type": "binding", "conditions": "allosteric; I-site, displacing dAMP; presumed hydrolysis product of added ATP; with TTP and GDP or CDP"}, "[4]": {"target": "T1, NrdE (holo-NrdE; class Ib RNR alpha subunit)", "assay": "crystal structure ([…] Å) and SAXS titration", "type": "binding", "conditions": "allosteric; M-site; 5 mM Mg-ATP with TTP and GDP; may have displaced GDP"}, "[5]": {"target": "the molecule itself", "assay": "SEC-SAXS; 80 µM wt holo-NrdE loaded, 250 µM TTP, 1 mM ATP, assay buffer with 1% glycerol, 4 °C; fit of the dataset to I-dimer, S-dimer and monomer in OLIGOMER"}, "[6]": {"target": "T3, Bacillus subtilis NrdE C382S, tagless (Bacillus subtilis, UniProt P50620 1-700, C382S)", "T3 construct": "NrdE, α subunit of the class Ib ribonucleotide reductase of Bacillus subtilis, with the catalytic cysteine C382 changed to serine; Used in all SAXS experiments where NrdF was added, to prevent changes in nucleotide concentrations (D1:p2); also called C382S holo-NrdE; C382S NrdE", "T3 sequence": "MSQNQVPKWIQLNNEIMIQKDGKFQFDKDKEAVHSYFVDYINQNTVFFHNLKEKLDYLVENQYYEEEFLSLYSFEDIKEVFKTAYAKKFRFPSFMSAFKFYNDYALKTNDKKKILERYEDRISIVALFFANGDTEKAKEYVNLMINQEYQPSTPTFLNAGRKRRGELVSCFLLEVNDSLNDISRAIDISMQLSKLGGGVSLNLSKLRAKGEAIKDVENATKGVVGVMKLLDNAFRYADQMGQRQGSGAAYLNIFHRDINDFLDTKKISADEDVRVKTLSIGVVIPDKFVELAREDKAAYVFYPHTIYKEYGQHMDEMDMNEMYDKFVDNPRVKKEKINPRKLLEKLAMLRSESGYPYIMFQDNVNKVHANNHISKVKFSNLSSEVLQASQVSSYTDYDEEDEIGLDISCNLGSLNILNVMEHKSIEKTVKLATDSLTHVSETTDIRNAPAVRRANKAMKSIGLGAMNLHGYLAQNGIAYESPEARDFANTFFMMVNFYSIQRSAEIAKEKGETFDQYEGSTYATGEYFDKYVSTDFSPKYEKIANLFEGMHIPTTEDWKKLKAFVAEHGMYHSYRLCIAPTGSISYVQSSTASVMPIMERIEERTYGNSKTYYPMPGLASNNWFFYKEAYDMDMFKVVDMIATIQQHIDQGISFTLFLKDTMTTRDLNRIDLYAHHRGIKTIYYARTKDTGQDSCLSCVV", "assay": "SAXS titration; 0-20 µM Fe-NrdF titrated to 4 µM C382S holo-NrdE, 50 µM dATP, 1 mM CDP, assay buffer with 5% glycerol, 4 °C; singular value decomposition", "conditions": "both partners purified"}, "[7]": {"target": "the molecule itself", "assay": "SEC-SAXS; stoichiometric mixture of C382S holo-NrdE and NrdF with 1 mM ATP and 250 µM TTP, 4 °C"}, "[8]": {"target": "T4, Bacillus subtilis class Ib ribonucleotide reductase alpha subunit NrdE, wild type, tagless (Bacillus subtilis, UniProt P50620 1-700)", "T4 construct": "NrdE, alpha subunit of the class Ib ribonucleotide reductase of Bacillus subtilis; tagless after SUMO protease; also called apo-NrdE (dAMP-free)", "T4 sequence": "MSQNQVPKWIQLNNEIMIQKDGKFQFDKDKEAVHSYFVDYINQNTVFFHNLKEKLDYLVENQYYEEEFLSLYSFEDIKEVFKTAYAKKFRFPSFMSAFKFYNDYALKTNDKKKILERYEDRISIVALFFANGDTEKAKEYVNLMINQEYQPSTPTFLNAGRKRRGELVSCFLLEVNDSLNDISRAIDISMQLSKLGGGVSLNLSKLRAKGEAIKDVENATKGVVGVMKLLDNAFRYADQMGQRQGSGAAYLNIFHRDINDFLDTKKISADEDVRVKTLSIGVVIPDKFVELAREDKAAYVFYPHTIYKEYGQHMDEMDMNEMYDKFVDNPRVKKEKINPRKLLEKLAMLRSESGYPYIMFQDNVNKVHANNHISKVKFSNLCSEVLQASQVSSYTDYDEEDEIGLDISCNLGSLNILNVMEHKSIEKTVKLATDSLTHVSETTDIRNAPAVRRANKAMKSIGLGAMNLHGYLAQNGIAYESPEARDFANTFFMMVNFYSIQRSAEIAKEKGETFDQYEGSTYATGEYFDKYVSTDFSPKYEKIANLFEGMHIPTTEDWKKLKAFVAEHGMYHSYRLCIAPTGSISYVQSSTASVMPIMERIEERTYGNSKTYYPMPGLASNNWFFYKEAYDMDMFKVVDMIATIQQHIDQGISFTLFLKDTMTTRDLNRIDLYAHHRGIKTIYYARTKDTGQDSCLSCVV", "assay": "cryo-EM structure; 20 µM holo-NrdE with 20 or 40 µM Mn-reconstituted NrdF, 100 µM dATP, 1 mM CDP, diluted four-fold; NrdEF filament, 4.7 Å map", "conditions": "both partners purified"}},
  "data": [
    {"molecule": "Nc1ncnc2c1ncn2[C@H]1C[C@H](O)[C@@H](COP(=O)(O)OP(=O)(O)OP(=O)(O)O)O1", "note": "[dATP]", "values": [
      {"measurement": "cryo-EM structure (6 Å) and SAXS titration", "setting": "[1]", "result": "For both filaments, excess density at the S-site was modeled as dATP"},
      {"measurement": "cryo-EM structure (4.7 Å)", "setting": "[2]", "result": "a dATP molecule at each S- and I-site"}
    ]},
    {"molecule": "Nc1ncnc2c1ncn2[C@@H]1O[C@H](COP(=O)(O)OP(=O)(O)O)[C@@H](O)[C@H]1O", "note": "[ADP]", "values": [
      {"measurement": "crystal structure (2.50, 2.55, 2.95 Å)", "setting": "[3]", "result": "Electron density at the I-site showed strong evidence for an ADP ligand displacing dAMP"}
    ]},
    {"molecule": "Nc1ncnc2c1ncn2[C@@H]1O[C@H](COP(=O)(O)OP(=O)(O)OP(=O)(O)O)[C@@H](O)[C@H]1O", "note": "[ATP]", "values": [
      {"measurement": "crystal structure (2.50, 2.55 Å) and SAXS titration", "setting": "[4]", "result": "we also observed nearby electron density for an ATP ligand with the adenine ring positioned"}
    ]},
    {"molecule": "Bacillus subtilis class Ib ribonucleotide reductase NrdE (α subunit), wild type, tagless (enzyme, NrdE, α subunit of the class Ib ribonucleotide reductase of Bacillus subtilis; holo-NrdE carries the co-purified dAMP ligand, apo-NrdE is nucleotide-free; same polypeptide; also called wt apo-NrdE (dAMP-free)) MSQNQVPKWIQLNNEIMIQKDGKFQFDKDKEAVHSYFVDYINQNTVFFHNLKEKLDYLVENQYYEEEFLSLYSFEDIKEVFKTAYAKKFRFPSFMSAFKFYNDYALKTNDKKKILERYEDRISIVALFFANGDTEKAKEYVNLMINQEYQPSTPTFLNAGRKRRGELVSCFLLEVNDSLNDISRAIDISMQLSKLGGGVSLNLSKLRAKGEAIKDVENATKGVVGVMKLLDNAFRYADQMGQRQGSGAAYLNIFHRDINDFLDTKKISADEDVRVKTLSIGVVIPDKFVELAREDKAAYVFYPHTIYKEYGQHMDEMDMNEMYDKFVDNPRVKKEKINPRKLLEKLAMLRSESGYPYIMFQDNVNKVHANNHISKVKFSNLCSEVLQASQVSSYTDYDEEDEIGLDISCNLGSLNILNVMEHKSIEKTVKLATDSLTHVSETTDIRNAPAVRRANKAMKSIGLGAMNLHGYLAQNGIAYESPEARDFANTFFMMVNFYSIQRSAEIAKEKGETFDQYEGSTYATGEYFDKYVSTDFSPKYEKIANLFEGMHIPTTEDWKKLKAFVAEHGMYHSYRLCIAPTGSISYVQSSTASVMPIMERIEERTYGNSKTYYPMPGLASNNWFFYKEAYDMDMFKVVDMIATIQQHIDQGISFTLFLKDTMTTRDLNRIDLYAHHRGIKTIYYARTKDTGQDSCLSCVV", "values": [
      {"measurement": "stoichiometry N", "setting": "[5]", "result": 2}
    ]},
    {"molecule": "Bacillus subtilis class Ib ribonucleotide reductase NrdF (β subunit), His6-tagged, metal-reconstituted (enzyme, NrdF, β subunit of the class Ib ribonucleotide reductase of Bacillus subtilis; Fe-NrdF was used in the subunit titration, Mn-NrdF in SEC-SAXS and cryo-EM; also called Fe-NrdF; Mn-NrdF; source: produced in a similar manner as NrdE but without the tag cleavage steps, purified; reconstituted with Fe(III)2-Y• or Mn(III)2-Y•, MonoQ) MTKIYDAANWSKHEDDFTQMFYNQNVKQFWLPEEIALNGDLLTWKYLGKNEQDTYMKVLAGLTLLDTEQGNTGMPIVAEHVDGHQRKAVLNFMAMMENAVHAKSYSNIFMTLAPTETINEVFEWVKQNKYLQKKAQMIVGLYKAIQKDDEISLFKAMVASVYLESFLFYSGFYYPLYFYGQGKLMQSGEIINLILRDEAIHGVYVGLLAQEIYNKQTEEKKAELREFAIDLLNQLYENELEYTEDLYDQVGLSHDVKKFIRYNANKALMNLGFDPYFEEEDINPIVLNGLNTKTKSHDFFSMKGNGYKKATVEPLKDDDFYFEDEKEQI", "values": [
      {"measurement": "stoichiometry N", "setting": "[6]", "result": "~1 NrdF per NrdE (subunits)"}
    ]},
    {"molecule": "Bacillus subtilis class Ib ribonucleotide reductase beta subunit NrdF, His6-tagged, metal-reconstituted (enzyme, NrdF, beta subunit of the class Ib ribonucleotide reductase of Bacillus subtilis; Fe-NrdF in the SAXS subunit titration, Mn-reconstituted NrdF in cryo-EM; also called Fe-NrdF) MTKIYDAANWSKHEDDFTQMFYNQNVKQFWLPEEIALNGDLLTWKYLGKNEQDTYMKVLAGLTLLDTEQGNTGMPIVAEHVDGHQRKAVLNFMAMMENAVHAKSYSNIFMTLAPTETINEVFEWVKQNKYLQKKAQMIVGLYKAIQKDDEISLFKAMVASVYLESFLFYSGFYYPLYFYGQGKLMQSGEIINLILRDEAIHGVYVGLLAQEIYNKQTEEKKAELREFAIDLLNQLYENELEYTEDLYDQVGLSHDVKKFIRYNANKALMNLGFDPYFEEEDINPIVLNGLNTKTKSHDFFSMKGNGYKKATVEPLKDDDFYFEDEKEQI", "values": [
      {"measurement": "binding result", "setting": "[7]", "result": "binds"},
      {"measurement": "binding result", "setting": "[8]", "result": "binds"}
    ]}
  ]
}
